The assay deals with T1, Recombinant human KIF18A (1-467 His-tagged) (Homo sapiens, UniProt Q8NI77).
T1 construct: Recombinant human KIF18A (1-467 His-tagged) protein; His
Briefly: KIF18A Enzyme Assay: microtubule-stimulated ATPase activity (ADP-Glo). The note with it: 30 nM KIF18A, 30 μg/mL pig microtubules, ATP 75 μM (Km), ADP-Glo luminescence. The assay is classed as biochemical. The method, boiled down: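 Measures microtubule-stimulated ATPase activity as ADP formed, detected by luminescence. Compounds were tested as 2-fold serial dilutions over 22 points. IC50 values came from four-parameter logistic fits.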

T1 sequence (Q8NI77 1-467): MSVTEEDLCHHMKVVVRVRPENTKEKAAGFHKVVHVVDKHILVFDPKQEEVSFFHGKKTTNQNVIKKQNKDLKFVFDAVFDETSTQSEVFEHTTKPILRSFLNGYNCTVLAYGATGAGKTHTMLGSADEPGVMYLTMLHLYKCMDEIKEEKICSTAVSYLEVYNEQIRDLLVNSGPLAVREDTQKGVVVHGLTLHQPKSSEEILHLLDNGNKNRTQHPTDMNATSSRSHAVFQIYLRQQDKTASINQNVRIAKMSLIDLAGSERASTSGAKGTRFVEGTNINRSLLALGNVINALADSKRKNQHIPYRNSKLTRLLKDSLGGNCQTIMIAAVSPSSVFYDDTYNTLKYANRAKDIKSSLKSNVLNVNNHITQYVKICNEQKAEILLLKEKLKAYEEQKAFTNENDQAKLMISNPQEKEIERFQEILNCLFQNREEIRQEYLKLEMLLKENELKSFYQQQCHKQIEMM
T1 sequence (P02550 whole entry partner): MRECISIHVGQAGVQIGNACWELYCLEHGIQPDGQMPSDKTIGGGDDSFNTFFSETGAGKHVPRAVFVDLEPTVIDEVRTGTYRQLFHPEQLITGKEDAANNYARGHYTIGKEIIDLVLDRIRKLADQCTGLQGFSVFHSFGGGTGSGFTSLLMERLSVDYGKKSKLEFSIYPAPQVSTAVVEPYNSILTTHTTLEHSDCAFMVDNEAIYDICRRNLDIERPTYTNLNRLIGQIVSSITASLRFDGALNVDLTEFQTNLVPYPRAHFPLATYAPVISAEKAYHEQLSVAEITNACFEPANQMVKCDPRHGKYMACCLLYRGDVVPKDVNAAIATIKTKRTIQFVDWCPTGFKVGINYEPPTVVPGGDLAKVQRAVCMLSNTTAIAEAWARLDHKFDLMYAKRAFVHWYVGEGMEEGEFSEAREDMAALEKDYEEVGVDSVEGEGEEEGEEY
T1 sequence (P02554 whole entry partner): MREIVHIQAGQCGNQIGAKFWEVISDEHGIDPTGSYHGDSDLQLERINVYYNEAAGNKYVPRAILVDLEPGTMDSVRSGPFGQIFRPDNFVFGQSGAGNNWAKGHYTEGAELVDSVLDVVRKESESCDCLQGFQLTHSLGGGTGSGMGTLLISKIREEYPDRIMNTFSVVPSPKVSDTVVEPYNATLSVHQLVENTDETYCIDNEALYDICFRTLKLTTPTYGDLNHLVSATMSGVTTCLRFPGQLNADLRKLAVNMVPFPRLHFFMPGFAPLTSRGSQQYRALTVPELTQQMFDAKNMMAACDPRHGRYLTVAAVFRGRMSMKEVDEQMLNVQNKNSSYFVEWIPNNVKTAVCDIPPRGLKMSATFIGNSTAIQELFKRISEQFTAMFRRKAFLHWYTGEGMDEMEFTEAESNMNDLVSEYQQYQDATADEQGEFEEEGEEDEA

What is called IC50 is the midpoint of a concentration-inhibition curve. With `C[C@@H]1CN(c2cccc(NC(=O)c3ccc(S(C)(=O)=O)cc3N3CCC4(CC3)CC4)n2)CCO1` [Example 4-13, (R)-N-(6-(2-Methylmorpholino)pyridin-2-yl)-4-(methylsulfonyl)-2-(6-azaspiro[2.5]octan-6-yl)benzamide], the IC50 came out at 69 nM. On to `C[C@@H]1CN(c2cccc(NC(=O)c3ccc(NS(=O)(=O)CC(C)(C)O)cc3N3CCC4(CC3)CC4)n2)CCO1` [Example 7-42, (R)-4-((2-Hydroxy-2-methylpropyl)sulfonamido)-N-(6-(2-methylmorpholino)pyridin-2-yl)-2-(6-azaspiro[2.5]octan-6-yl)benzamide], for which the half-maximal inhibitory concentration (IC50) was 111 nM. Under `CC1(S(=O)(=O)Nc2ccc(C(=O)Nc3cccc(OCC4CC4)n3)c(N3CCC4(CC3)CC4)c2)CC1` [Example 14, N-(6-(Cyclopropylmethoxy)pyridin-2-yl)-4-((1-methylcyclopropane)-1-sulfonamido)-2-(6-azaspiro[2.5]octan-6-yl)benzamide] stands 19 nM; under `C[C@@H]1CN(c2cc(C3CC3)cc(NC(=O)c3ccc(NS(=O)(=O)CCO)cc3N3CCC4(CC3)CC4)n2)CCO1` [Example 19, (R)—N-(4-cyclopropyl-6-(2-methylmorpholino)pyridin-2-yl)-4-((2-hydroxyethyl)sulfonamido)-2-(6-azaspiro[2.5]octan-6-yl)benzamide], 87 nM; under `CS(=O)(=O)c1ccc(C(=O)Nc2cccc(N3CCOCC3)n2)c(N2CCC3(CC2)CC3)c1` [Example 4-12, 4-(Methylsulfonyl)-N-(6-morpholinopyridin-2-yl)-2-(6-azaspiro[2.5]octan-6-yl)benzamide], 118 nM.

With `Cc1cc(NC(=O)c2ccc(NS(=O)(=O)CCO)cc2N2CCC3(CC2)CC3)nc(N2CC(F)(F)C2)c1` [Example 11, N-(6-(3,3-Difluoroazetidin-1-yl)-4-methylpyridin-2-yl)-4-((2-hydroxyethyl)sulfonamido)-2-(6-azaspiro[2.5]octan-6-yl)benzamide], the IC50 was found to be 31 nM.

Regarding `O=C(Nc1cccc(OCCC(F)(F)F)n1)c1ccc(NS(=O)(=O)CCO)cc1N1CCC2(CC1)CC2` [Example 5, 4-((2-Hydroxyethyl)sulfonamido)-2-(6-azaspiro[2.5]octan-6-yl)-N-(6-(3,3,3-trifluoropropoxy)pyridin-2-yl)benzamide], the IC50 was found to be 25 nM. Regarding `C[C@@H]1CN(c2cccc(NC(=O)c3ccc(S(=O)(=O)N4CCC4)cc3N3CCC4(CC3)CC4)n2)CCO1` [Example 1-7, (R)-4-(Azetidin-1-ylsulfonyl)-N-(6-(2-methylmorpholino)pyridin-2-yl)-2-(6-azaspiro[2.5]octan-6-yl)benzamide], the IC50 amounted to 67 nM. `CN1CC(COc2cccc(NC(=O)c3ccc(NS(=O)(=O)CCO)cc3N3CCC4(CC3)CC4)n2)C1` [Example 16-3, 4-((2-Hydroxyethyl)sulfonamido)-N-(6-((1-methylazetidin-3-yl)methoxy)pyridin-2-yl)-2-(6-azaspiro[2.5]octan-6-yl)benzamide]: the IC50 worked out at 63 nM.

In the case of `C[C@@H]1CN(c2cccc(NC(=O)c3ccc([S@](=N)(=O)C(C)(C)C)cc3N3CCC4(CC3)CC4)n2)CCO1` (single isomer, unassigned) [Example 13-1], the IC50 amounted to 199 nM. Under `CC1(S(=O)(=O)Nc2ccc(C(=O)Nc3cccc(N4CCC(F)(F)C4)n3)c(N3CCC4(CC3)CC4)c2)CC1` [Example 3-5, N-(6-(3,3-Difluoropyrrolidin-1-yl)pyridin-2-yl)-4-((1-methylcyclopropane)-1-sulfonamido)-2-(6-azaspiro[2.5]octan-6-yl)benzamide] stands 45 nM; under `O=C(Nc1cccc(OCCC(F)(F)F)n1)c1ccc(S(=O)(=O)NCCO)cc1N1CCC2(CC1)CC2` [Example 1, 4-(N-(2-Hydroxyethyl)sulfamoyl)-2-(6-azaspiro[2.5]octan-6-yl)-N-(6-(3,3,3-trifluoropropoxy)pyridin-2-yl)benzamide], 12 nM; under `C[C@@H]1CN(c2cccc(NC(=O)c3ccc(S(=O)(=O)NC4(C)COC4)cc3N3CCC4(CC3)CC4)n2)CCO1` [Example 4-11, (R)-N-(6-(2-Methylmorpholino)pyridin-2-yl)-4-(N-(3-methyloxetan-3-yl)sulfamoyl)-2-(6-azaspiro[2.5]octan-6-yl)benzamide], 43 nM. The figure for `CS(=O)(=O)Cc1ccc(C(=O)Nc2cccc(N3CCC[C@@H](O)C3)n2)c(N2CCC3(CC2)CC3)c1` [Example 4, (R)-N-(6-(3-hydroxypiperidin-1-yl)pyridin-2-yl)-4-((methylsulfonyl)methyl)-2-(6-azaspiro[2.5]octan-6-yl)benzamide] is 94 nM; for `CC1(S(=O)(=O)Nc2ccc(C(=O)Nc3cccc(N4CCC[C@@H](CO)C4)n3)c(N3CCC4(CC3)CC4)c2)CC1` [Example 3-6, (R)-N-(6-(3-(Hydroxymethyl)piperidin-1-yl)pyridin-2-yl)-4-((1-methylcyclopropane)-1-sulfonamido)-2-(6-azaspiro[2.5]octan-6-yl)benzamide] it is 86 nM; for `C[C@@H]1CN(c2cccc(NC(=O)c3ccc(NS(=O)(=O)CCC(F)(F)F)cc3N3CCC4(CC3)CC4)n2)CCO1` [Example 7-14, (R)-N-(6-(2-Methylmorpholino)pyridin-2-yl)-2-(6-azaspiro[2.5]octan-6-yl)-4-((3,3,3-trifluoropropyl)sulfonamido)benzamide] it is 343 nM.

For `Cc1cc(NC(=O)c2ccc(NS(=O)(=O)CCO)cc2N2CCC3(CC2)CC3)nc(N2CCO[C@@H](C)C2)c1` [Example 7-19, (S)-4-((2-Hydroxyethyl)sulfonamido)-N-(4-methyl-6-(2-methylmorpholino)pyridin-2-yl)-2-(6-azaspiro[2.5]octan-6-yl)benzamide], the IC50 was 49 nM. Under `Cc1cc(NC(=O)c2ccc(NS(=O)(=O)[C@H](C)CO)cc2N2CCC3(CC2)CC3)nc(N2CCO[C@H](C)C2)c1` (single isomer, unassigned) [Example 9-11] stands 38 nM; under `C[C@@H]1CN(c2cccc(NC(=O)c3ccc(NS(=O)(=O)CCO)cc3N3CCC4(CC3)CC4)n2)CCO1` [Example 7-12, (R)-4-((2-Hydroxyethyl)sulfonamido)-N-(6-(2-methylmorpholino)pyridin-2-yl)-2-(6-azaspiro[2.5]octan-6-yl)benzamide], 30 nM; under `C[C@@H]1CN(c2cccc(NC(=O)c3ccc(NS(=O)(=O)[C@@H](C)CO)cc3N3CCC4(CC3)CC4)n2)CCO1` (single isomer, unassigned) [Example 9-16], 48 nM. Turning to `C[C@@H]1CN(c2cccc(NC(=O)c3ccc(NS(C)(=O)=O)cc3N3CCC4(CC3)CC4)n2)CCO1` [Example 7-2, (R)-N-(6-(2-Methylmorpholino)pyridin-2-yl)-4-(methylsulfonamido)-2-(6-azaspiro[2.5]octan-6-yl)benzamide], the IC50 worked out at 39 nM. As to `C[C@H]1CN(c2cccc(NC(=O)c3ccc(NS(=O)(=O)[C@@H](C)CO)cc3N3CCC4(CC3)CC4)n2)CCO1` (single isomer, unassigned) [Example 9-18], the IC50 is 36 nM. As for `CC(C)(O)c1cccc(NC(=O)c2ccc(S(C)(=O)=O)cc2N2CCC3(CC2)CC3)n1` [Example 4-7, N-(6-(2-Hydroxypropan-2-yl)pyridin-2-yl)-4-(methylsulfonyl)-2-(6-azaspiro[2.5]octan-6-yl)benzamide], the half-maximal inhibitory concentration (IC50) stood at 315 nM. The figure for `C[C@H](CO)S(=O)(=O)Nc1ccc(C(=O)Nc2cccc(N3CCO[C@@H](C)C3)n2)c(N2CCC3(CC2)CC3)c1` (single isomer, unassigned) [Example 9-17] is 24 nM. The figure for `CC1(S(=O)(=O)Nc2ccc(C(=O)Nc3cccc(N4CC(F)(F)C4)n3)c(N3CCC4(CC3)CC4)c2)CC1` [Example 3-18, N-(6-(3,3-Difluoroazetidin-1-yl)pyridin-2-yl)-4-((1-methylcyclopropane)-1-sulfonamido)-2-(6-azaspiro[2.5]octan-6-yl)benzamide] is 48 nM; for `CC1(O)CCN(c2cccc(NC(=O)c3ccc(NS(=O)(=O)C4(C)CC4)cc3N3CCC4(CC3)CC4)n2)CC1` [Example 3-8, N-(6-(4-Hydroxy-4-methylpiperidin-1-yl)pyridin-2-yl)-4-((1-methylcyclopropane)-1-sulfonamido)-2-(6-azaspiro[2.5]octan-6-yl)benzamide] it is 243 nM. For the compound `CC1(S(=O)(=O)Nc2ccc(C(=O)Nc3cccc(N4CCC[C@@H](O)C4)n3)c(N3CCC4(CC3)CC4)c2)CC1` [Example 3, (R)-N-(6-(3-Hydroxypiperidin-1-yl)pyridin-2-yl)-4-((1-methylcyclopropane)-1-sulfonamido)-2-(6-azaspiro[2.5]octan-6-yl)benzamide], the IC50 turned out to be 46 nM.

For `C[C@@H]1CN(c2cccc(NC(=O)c3ccc(CS(C)(=O)=O)cc3N3CCC4(CC3)CC4)n2)CCO1` [Example 4-15, (R)-N-(6-(2-Methylmorpholino)pyridin-2-yl)-4-((methylsulfonyl)methyl)-2-(6-azaspiro[2.5]octan-6-yl)benzamide], the IC50 was 85 nM. The figure for `Cc1cc(NC(=O)c2ccc(NS(=O)(=O)C3COC3)cc2N2CCC3(CC2)CC3)nc(N2CCC(F)(F)CC2)c1` [Example 7-11, N-(6-(4,4-Difluoropiperidin-1-yl)-4-methylpyridin-2-yl)-4-(oxetane-3-sulfonamido)-2-(6-azaspiro[2.5]octan-6-yl)benzamide] is 81 nM; for `C[C@@H]1CN(c2cccc(NC(=O)c3ccc(S(=O)(=O)N4CC(C)(C#N)C4)cc3N3CCC4(CC3)CC4)n2)CCO1` [Example 1-12, (R)-4-((3-Cyano-3-methylazetidin-1-yl)sulfonyl)-N-(6-(2-methylmorpholino)pyridin-2-yl)-2-(6-azaspiro[2.5]octan-6-yl)benzamide] it is 458 nM. As to `N#Cc1ccc(NC(=O)c2ccc(NS(=O)(=O)CCO)cc2N2CCC3(CC2)CC3)nc1N1CCC(F)(F)CC1` [Example 21, N-(5-Cyano-6-(4,4-difluoropiperidin-1-yl)pyridin-2-yl)-4-((2-hydroxyethyl)sulfonamido)-2-(6-azaspiro[2.5]octan-6-yl)benzamide], the IC50 was 25 nM.

(Values after patent US12459932B2, “KIF18A inhibitors” (AMGEN INC., priority 2018, dated 2025).)
